Experimental data as given in patent publication US9796711B2, “Substituted pyrazolo[3,4-b]pyridin-6-carboxylic acids and method of use” (AbbVie S.àr.l., priority 2015, dated 2017).

What was measured:
ΔF508-CFTR [1] = target: T1, ΔF508-CFTR (Homo sapiens, UniProt P13569, DEL508-508); assay: CFTR cell surface levels using HRP-tagged ΔF508-CFTR expressing CFBE cells, intrinsic corrector capacity; type: cell-based
T1 construct: host or cells: CFBE41o-, doxycycline-inducible
From the text: Measuring CFTR Cell Surface Levels Using HRP-Tagged AF508-CFTR Expressing CFBE Cells
The HRP-tagged AF508-CFTR cell assay measures the expression of CFTR-ΔF508 at the plasma membrane. CFTR-ΔF508 has a folding defect leading to absence of protein at the plasma membrane. This assay is used to evaluate the capacity of compounds to increase the expression of CFTR-ΔF508 at the plasma membrane. The CFTR-ΔF508 is tagged with HRP (horse radish peroxidase enzyme) within the ECL4 (Extracellular loop 4) of CFTR (Phuan, P.-W. et al. Synergy-based small-molecule screen using a human lung epithelial cell line yields AF508-CFTR correctors that augment VX-809 maximal efficacy. Mol. Pharmacol. 86, 42-51 (2014)). When HRP-tagged AF508-CFTR is present at the plasma membrane, the HRP enzyme activity can be measured. The amount of CFTR-ΔF508 that can be rescued to the plasma membrane is correlated with the amount of functional enzyme that can be measured.
There are several ways to measure the capacity of compounds to rescue CFTR-ΔF508 to the plasma membrane; either compounds are evaluated on their own and the impact on plasma membrane levels is measured or compounds are evaluated in combination with a co-corrector, i.e. a compound that rescues CFTR-ΔF508 to the plasma membrane but rescue can be enhanced by addition of compounds due to a complementary mode of action.
Activity of Compounds for their Intrinsic Corrector Capacity:
For this purpose doxycycline-inducible AF508-CFTR-HRP expressing CFBE4lo-cells (obtained from Gergely Lukacs, McGill University) were maintained in MEM (Gibco; 31095) supplemented with 10% fetal bovine serum (Hyclone; SV30160.03) under puromycin (3 μg/mL) and G418 selection (0.2 mg/mL). For compound testing, cells were seeded at 4000 cells/well in white 384-well plates (Greiner; 781080) in 50 μL medium containing 0.5 μg/mL doxycycline and incubated for 68 hours at 37° C., 5% CO2. On day four, 10 μL test compounds diluted in PBS were added to the plates at a final DMSO concentration of 0.1%. All compound plates contained negative controls (DMSO) and positive controls (3 μM corrector, 3-[(2R,4R)-4-({[1-(2,2-difluoro-1,3-benzodioxol-5-yl)cyclopropyl]carbonyl}amino)-7-methoxy-3,4-dihydro-2H-chromen-2-yl]benzoic acid). Cell plates were incubated at 33° C., 5% CO2 for 20 hours. On day five, the cells were washed five times with phosphate-buffered saline, and HRP activity was assayed by the addition of 50 μL/well of HRP substrate (SuperSignal™ West Pico Chemiluminescent Substrate, Thermo Scientific; 34080). After incubation for 15 minutes in the dark, chemiluminescence was measured using a plate reader (EnVision®, Perkin Elmer). Raw data were normalized to percentage activity values using the equation: 100×(Sample−Negative control)/(Positive control−Negative Control).

ΔF508-CFTR [2] = target: T1, ΔF508-CFTR; assay: CFTR cell surface levels using HRP-tagged ΔF508-CFTR expressing CFBE cells, in the presence of a co-corrector; type: cell-based
Summary of the method: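 Cells were seeded with 0.5 μg/mL doxycycline and held 68 h at 37 °C. Test compounds plus 3 μM co-corrector (final 0.1% DMSO) were then added for 20 h at 33 °C. Washed cells received HRP substrate, and luminescence was normalized between DMSO and 3 μM co-corrector controls.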

[3] = HRP-tagged ΔF508-CFTR CFBE41o- cells, compounds alone (intrinsic corrector capacity), 20 hours at 33° C., positive control 3 μM corrector
[4] = HRP-tagged ΔF508-CFTR CFBE41o- cells, compounds alone (intrinsic corrector capacity), 20 hours at 33° C., read-out: EC50
[5] = HRP-tagged ΔF508-CFTR expressing CFBE cells, in the presence of 3 μM co-corrector
[6] = HRP-tagged ΔF508-CFTR expressing CFBE cells, in the presence of 3 μM co-corrector, read-out: EC50
[7] = HRP-tagged ΔF508-CFTR expressing CFBE cells, intrinsic corrector capacity (no co-corrector), 33° C., 20 hours
[8] = HRP-tagged ΔF508-CFTR expressing CFBE cells, intrinsic corrector capacity (no co-corrector), 33° C., 20 hours, read-out: EC50

T1 sequence (P13569 with tags, fused parts or gaps DEL508-508): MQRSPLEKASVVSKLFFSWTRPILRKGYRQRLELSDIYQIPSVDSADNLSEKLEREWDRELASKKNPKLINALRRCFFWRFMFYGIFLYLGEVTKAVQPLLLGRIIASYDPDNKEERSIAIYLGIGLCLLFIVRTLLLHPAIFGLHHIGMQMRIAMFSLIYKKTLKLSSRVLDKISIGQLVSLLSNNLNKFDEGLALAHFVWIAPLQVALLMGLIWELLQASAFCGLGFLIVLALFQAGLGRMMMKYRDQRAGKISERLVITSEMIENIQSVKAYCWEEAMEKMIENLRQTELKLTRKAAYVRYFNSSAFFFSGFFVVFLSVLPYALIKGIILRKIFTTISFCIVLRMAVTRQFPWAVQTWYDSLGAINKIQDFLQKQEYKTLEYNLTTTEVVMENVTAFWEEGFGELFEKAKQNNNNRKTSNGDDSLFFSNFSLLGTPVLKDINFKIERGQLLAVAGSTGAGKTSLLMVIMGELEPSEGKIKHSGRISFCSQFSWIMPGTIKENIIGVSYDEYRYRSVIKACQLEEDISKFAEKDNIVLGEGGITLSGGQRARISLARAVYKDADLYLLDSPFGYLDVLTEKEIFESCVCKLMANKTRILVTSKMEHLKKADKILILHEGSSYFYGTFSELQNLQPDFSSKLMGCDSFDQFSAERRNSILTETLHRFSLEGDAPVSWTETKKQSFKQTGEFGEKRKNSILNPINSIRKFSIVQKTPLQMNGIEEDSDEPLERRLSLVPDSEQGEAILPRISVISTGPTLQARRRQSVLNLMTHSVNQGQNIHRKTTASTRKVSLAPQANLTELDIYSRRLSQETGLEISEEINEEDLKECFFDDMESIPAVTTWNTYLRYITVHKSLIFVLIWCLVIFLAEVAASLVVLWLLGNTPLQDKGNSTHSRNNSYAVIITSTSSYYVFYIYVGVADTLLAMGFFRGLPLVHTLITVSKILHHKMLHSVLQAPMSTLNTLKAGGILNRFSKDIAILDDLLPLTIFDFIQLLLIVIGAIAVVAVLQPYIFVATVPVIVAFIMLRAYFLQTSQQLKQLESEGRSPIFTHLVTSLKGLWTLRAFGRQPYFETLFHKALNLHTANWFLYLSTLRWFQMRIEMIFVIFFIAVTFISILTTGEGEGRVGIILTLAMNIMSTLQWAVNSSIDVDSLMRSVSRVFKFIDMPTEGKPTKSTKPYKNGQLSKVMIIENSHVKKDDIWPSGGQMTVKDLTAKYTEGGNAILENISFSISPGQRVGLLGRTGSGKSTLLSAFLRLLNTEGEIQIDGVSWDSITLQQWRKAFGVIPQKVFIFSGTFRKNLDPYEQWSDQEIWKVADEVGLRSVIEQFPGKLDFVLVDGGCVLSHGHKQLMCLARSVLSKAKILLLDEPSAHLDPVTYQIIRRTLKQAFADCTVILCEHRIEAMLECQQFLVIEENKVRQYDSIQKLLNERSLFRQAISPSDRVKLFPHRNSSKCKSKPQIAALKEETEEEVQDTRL

Structure (SMILES)	% Activation (ΔF508-CFTR [1]; [3])	EC50 (ΔF508-CFTR [1]; [4])	% Activation (ΔF508-CFTR [2]; [5])	EC50 (ΔF508-CFTR [2]; [6])	EC50 (ΔF508-CFTR [1])	% Activation (ΔF508-CFTR [1]; [7])	EC50 (ΔF508-CFTR [2])	EC50 (ΔF508-CFTR [1]; [8])	% Activation (ΔF508-CFTR [1]; HRP-tagged ΔF508-CFTR CFBE cells, compound alone (intrinsic corrector capacity), 20 hours at 33° C.)	EC50 (ΔF508-CFTR [1]; HRP-tagged ΔF508-CFTR CFBE cells, compound alone (intrinsic corrector capacity), 20 hours at 33° C., read-out: EC50)
CC(C)c1nn([C@@H]2CCC[C@@H](O)C2)c2nc(C(=O)O)cc(-c3ccc(N4CCOCC4)cc3)c12 (racemic) [compound 194, rac-1-[(1R,3R)-3-hydroxycyclohexyl]-4-[4-(morpholin-4-yl)phenyl]-3-(propan-2-yl)-1H-pyrazolo[3,4-b]pyridine-6-carboxylic acid]	86.36%	1710 nM	233.9%	1250 nM	–	–	–	–	–	–
CC(C)c1nn([C@@H]2CCC[C@H](O)C2)c2nc(C(=O)O)cc(-c3ccc(N4CCOCC4)cc3)c12 (racemic) [compound 195, rac-1-[(1R,3S)-3-hydroxycyclohexyl]-4-[4-(morpholin-4-yl)phenyl]-3-(propan-2-yl)-1H-pyrazolo[3,4-b]pyridine-6-carboxylic acid]	27.46%	> 10000 nM	174.9%	3340 nM	–	–	–	–	–	–
CC(C)(C)OC(=O)N1CC[C@@H]2CN(c3cc(C(=O)O)nc4c3c(C3CCC3)nn4-c3ccccc3)CC[C@@H]21 (racemic) [compound 549, rac-4-[(3aR,7aS)-1-(tert-butoxycarbonyl)octahydro-5H-pyrrolo[3,2-c]pyridin-5-yl]-3-cyclobutyl-1-phenyl-1H-pyrazolo[3,4-b]pyridine-6-carboxylic acid]	–	–	467.2%	–	211 nM	302.2%	61.7 nM	–	–	–
CC(=O)N1CC[C@@H]2CN(c3cc(C(=O)O)nc4c3c(C3CCC3)nn4-c3ccccc3)CC[C@@H]21 (single isomer, unassigned) [compound 587]	–	–	360.33%	2420 nM	–	149.5%	–	3330 nM	–	–
CC(=O)N1CC[C@H]2CN(c3cc(C(=O)O)nc4c3c(C3CCC3)nn4-c3ccccc3)CC[C@H]21 (single isomer, unassigned) [compound 588]	–	–	469.3%	2420 nM	–	232.6%	–	3330 nM	–	–
COc1ccc(-c2cc(C(=O)O)nc3c2c(C)nn3C2CCCCC2)cc1 [compound 2, 1-cyclohexyl-4-(4-methoxyphenyl)-3-methyl-1H-pyrazolo[3,4-b]pyridine-6-carboxylic acid]	49.03%	2650 nM	198.6%	2970 nM	–	–	–	–	–	–
Cc1cccc(-n2nc(C)c3c(-c4ccc(N5CCOCC5)cc4)cc(C(=O)O)nc32)c1 [compound 13, 3-methyl-1-(3-methylphenyl)-4-[4-(morpholin-4-yl)phenyl]-1H-pyrazolo[3,4-b]pyridine-6-carboxylic acid]	159.23%	997 nM	363.7%	723 nM	–	–	–	–	–	–
Cc1nn(-c2ccccc2)c2nc(C(=O)O)cc(-c3cnc(N4CCOCC4)nc3)c12 [compound 15, 3-methyl-4-[2-(morpholin-4-yl)pyrimidin-5-yl]-1-phenyl-1H-pyrazolo[3,4-b]pyridine-6-carboxylic acid]	98.68%	2670 nM	282.5%	2600 nM	–	–	–	–	–	–
Cc1cccc(-n2nc(C(C)C)c3c(-c4ccc(N5CCOCC5)cc4)cc(C(=O)O)nc32)c1 [compound 20, 1-(3-methylphenyl)-4-[4-(morpholin-4-yl)phenyl]-3-(propan-2-yl)-1H-pyrazolo[3,4-b]pyridine-6-carboxylic acid]	199.98%	522 nM	450.9%	371 nM	–	–	–	–	–	–
Cc1nn(-c2cccc(C(F)(F)F)c2)c2nc(C(=O)O)cc(-c3ccc(N4CCOCC4)cc3)c12 [compound 22, 3-methyl-4-[4-(morpholin-4-yl)phenyl]-1-[3-(trifluoromethyl)phenyl]-1H-pyrazolo[3,4-b]pyridine-6-carboxylic acid]	131.28%	1010 nM	310.95%	995 nM	–	–	–	–	–	–
Cc1nn(-c2ccccc2)c2nc(C(=O)O)cc(-c3ccc(N4CCOCC4)cc3Cl)c12 [compound 26, 4-[2-chloro-4-(morpholin-4-yl)phenyl]-3-methyl-1-phenyl-1H-pyrazolo[3,4-b]pyridine-6-carboxylic acid]	83.24%	1270 nM	258.4%	1090 nM	–	–	–	–	–	–
Cc1nn(-c2cccc(N3CCOCC3)c2)c2nc(C(=O)O)cc(-c3ccc(N4CCOCC4)cc3)c12 [compound 32, 3-methyl-1-[3-(morpholin-4-yl)phenyl]-4-[4-(morpholin-4-yl)phenyl]-1H-pyrazolo[3,4-b]pyridine-6-carboxylic acid]	176.7%	638 nM	399.6%	1390 nM	–	–	–	–	–	–
Cc1nn(-c2cccc(N(C)C)c2)c2nc(C(=O)O)cc(-c3ccc(N4CCOCC4)cc3)c12 [compound 36, 1-[3-(dimethylamino)phenyl]-3-methyl-4-[4-(morpholin-4-yl)phenyl]-1H-pyrazolo[3,4-b]pyridine-6-carboxylic acid]	118.9%	2000 nM	364.5%	3340 nM	–	–	–	–	–	–
CC(C)c1nn(-c2ccnc(Cl)c2)c2nc(C(=O)O)cc(-c3ccc(N4CCOCC4)cc3)c12 [compound 41, 1-(2-chloropyridin-4-yl)-4-[4-(morpholin-4-yl)phenyl]-3-(propan-2-yl)-1H-pyrazolo[3,4-b]pyridine-6-carboxylic acid]	110.52%	957 nM	301.2%	527 nM	–	–	–	–	–	–
CC(C)c1nn(-c2ccc(OC(F)(F)F)cc2)c2nc(C(=O)O)cc(-c3ccc(N4CCOCC4)cc3)c12 [compound 43, 4-[4-(morpholin-4-yl)phenyl]-3-(propan-2-yl)-1-[4-(trifluoromethoxy)phenyl]-1H-pyrazolo[3,4-b]pyridine-6-carboxylic acid]	187.4%	408 nM	360.8%	371 nM	–	–	–	–	–	–
CC(C)(C)OC(=O)N1CC(c2nn(-c3ccccc3)c3nc(C(=O)O)cc(-c4ccc(N5CCOCC5)cc4)c23)C1 [compound 47, 3-[1-(tert-butoxycarbonyl)azetidin-3-yl]-4-[4-(morpholin-4-yl)phenyl]-1-phenyl-1H-pyrazolo[3,4-b]pyridine-6-carboxylic acid]	183.2%	608 nM	390.5%	567 nM	–	–	–	–	–	–
CC(C)c1nn(C2CCCCC2)c2nc(C(=O)O)cc(-c3ccc(N4CCOCC4)cc3)c12 [compound 54, 1-cyclohexyl-4-[4-(morpholin-4-yl)phenyl]-3-(propan-2-yl)-1H-pyrazolo[3,4-b]pyridine-6-carboxylic acid]	167.9%	763 nM	392.6%	376 nM	–	–	–	–	–	–
CC(C)COC(=O)N1CCN(c2cc(C(=O)O)nc3c2c(C2CCC2)nn3-c2ccc(F)cc2)CC1 [compound 930, 3-cyclobutyl-1-(4-fluorophenyl)-4-{4-[(2-methylpropoxy)carbonyl]piperazin-1-yl}-1H-pyrazolo[3,4-b]pyridine-6-carboxylic acid]	–	–	–	–	–	–	–	–	434.3%	240 nM
